Experimental data reported in patent publication US5086053A, “Derivatives of 1,3,4-thiadiazole, a method of obtaining them and pharmaceutical compositions containing them” (Sanofi, priority 1988, dated 1992).
Structures can show the parent of a compound that is named as a salt. Where two headings read alike, the source gives them in different places.

Columns and labels:
[1] = test system: M1 central muscarinic cholinergic receptors; experiment: Antagonism to rotatory behaviour induced by intrastriatal injection of pirenzepine in the mouse; type: in vivo, mouse (female, Swiss, CD 1); conditions: for change in vivo at 3 mg/kg: Mus musculus, po, read-out: % inhibition of pirenzepine-induced rotations
Protocol: Intrastriatal injection of PZ into the mouse induces rotatory behaviour. Antagonism to this behaviour by the products according to the invention was studied.
The products according to the invention were administered in doses of 0.3 or 3 mg/kg orally after being solubilized in distilled water or suspended in a 5% solution of gum arabic. The controls were given pure solvent under the same conditions.
The animals used were female mice (Swiss, CD 1, Charles River, France), body weight between 25 and 30 grams.
Pirenzepine was dissolved in a phosphate buffer, the pH of the solution being 6.
The products under study or solvents thereof were orally administered, using a probang, in a volume of 0.4 ml per 20 g body weight.
The number of contralateral rotations (in the opposite direction to the side of the injection) was counted for three 2-minute periods after injection of pirenzepine (minutes 2-4, 8-10 and 13-15) and was then totalled for each animal. Each treatment comprised three to four doses and ten animals per dose. For each treatment, the total number of rotations and the percentage inhibition relative to the control batch (solvent) was calculated.

[2] = target: T1, type M1 muscarinic cholinergic receptor (Rattus norvegicus, UniProt P08482); experiment: biochemical; type: binding; conditions: for ratio R between the IC50 for receptors M1 and M2 (selectivity): values correspond to IC50 3H-NMS (M2) / IC50 3H-PZ (M1)
T1 sequence (P08482 1-460): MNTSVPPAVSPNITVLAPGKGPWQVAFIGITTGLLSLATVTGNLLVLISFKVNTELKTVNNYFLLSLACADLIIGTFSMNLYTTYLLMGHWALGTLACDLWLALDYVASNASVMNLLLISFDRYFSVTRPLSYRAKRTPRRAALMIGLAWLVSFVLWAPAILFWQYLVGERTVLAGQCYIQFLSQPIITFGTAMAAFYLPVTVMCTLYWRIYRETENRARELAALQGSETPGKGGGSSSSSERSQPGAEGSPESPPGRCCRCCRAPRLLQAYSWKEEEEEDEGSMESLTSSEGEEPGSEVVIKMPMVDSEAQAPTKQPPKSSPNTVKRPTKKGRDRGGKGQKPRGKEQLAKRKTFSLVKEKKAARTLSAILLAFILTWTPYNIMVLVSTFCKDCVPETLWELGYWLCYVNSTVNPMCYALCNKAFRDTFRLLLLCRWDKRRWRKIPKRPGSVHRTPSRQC
Protocol: a) Search for an affinity for the type M1 muscarinic cholinergic receptor
The interaction of molecules with type M1 muscarinic receptors was studied in vitro on homogenized rat hippocampus, by studying the displacement of tritiated pirenzepine form its specific tagging sites. 10 μl portions of homogenized rat hippocampus (5% w/v) in an Na2 HPO4 buffer (50 mM, pH 7.40) were incubated at 4° C. for 2 hours in the presence of ^3 H--Pz (76 Ci/mmol/l nM final), with increasing concentrations of the product under study. The final volume was 2 ml. The reaction was stopped by centrifuging for 10 minutes at 50 000 g. After decantation and washing of the bottoms, the tagged radioactivity was counted by liquid scintillation. Non-specific tagging was determined in the presence of 10 μM of atropine sulphate. The 50 inhibiting concentration (IC50) was determined graphically.

[3] = target: T2, type M2 muscarinic cholinergic receptor (Cavia porcellus, UniProt H0VRN8); experiment: Affinity for type M2 muscarinic cholinergic receptor: displacement of tritiated N-methylscopolamine (3H-NMS) on homogenized smooth muscle of guinea-pig ileum; type: binding; conditions: displacement of 3H-NMS, 30° C., 20 minutes
T2 construct: studies in vitro on homogenized smooth muscle of guinea-pig ileum; from tissue; host or cells: guinea-pig ileum smooth muscle homogenate
T2 sequence (H0VRN8 1-466): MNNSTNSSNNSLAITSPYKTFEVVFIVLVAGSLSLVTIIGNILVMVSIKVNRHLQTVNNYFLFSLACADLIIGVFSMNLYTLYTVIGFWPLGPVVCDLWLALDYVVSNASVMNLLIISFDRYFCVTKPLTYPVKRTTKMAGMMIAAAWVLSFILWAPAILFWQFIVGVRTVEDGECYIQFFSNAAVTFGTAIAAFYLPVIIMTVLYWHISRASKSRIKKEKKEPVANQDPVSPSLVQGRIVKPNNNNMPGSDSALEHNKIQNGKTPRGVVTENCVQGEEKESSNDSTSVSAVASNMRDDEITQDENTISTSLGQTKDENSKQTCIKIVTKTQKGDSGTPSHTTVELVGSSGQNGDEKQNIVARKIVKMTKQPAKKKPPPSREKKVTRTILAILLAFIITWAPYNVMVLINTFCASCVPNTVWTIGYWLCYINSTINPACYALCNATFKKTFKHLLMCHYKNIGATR
Text: BIOCHEMICAL STUDY IN VITRO
M1 type receptors are concentrated in certain zones of the brain such as the hippocampus, the cerebral cortex, the corpus striatum and the sympathetic ganglia. These connection sites can be selectively tagged with tritiated pirenzepine (^3 H--PZ). Type M2 receptors predominate in the heart and the ileum and can be tagged with tritiated N-methylscopolamine (^3 H--NMS). In order to determine the selectivity of the products according to the invention, with regard to sites M1 and M2, a study was made of their interaction in vitro, with high-affinity tagging with ^3 H--PZ and ^3 H--NMS, on rat hippocampus membranes and smooth muscle from guinea-pig ileum respectively.
b) Search for an affinity for the type M2 muscarinic cholinergic receptor
Interaction with type M2 muscarinic receptors was studies in vitro on homogenized smooth muscle of guinea-pig ileum by measuring the displacement of tritiated N-methyl-scopolamine from its specific tagging sites. 50 μl portions of homogenized smooth muscle form guinea-pig ileum (0.625% w/v) in 20 mM of HEPES buffer: 2-((2-hydroxy 4-ethyl) piperazin-1-yl) ethanesulphonic acid containing NaCl (100 mM) and Mg Cl2 (10 mM) (final pH=7.5) were incubated at 30° C. for 20 minutes int eh presence of ^3 H--NMS (85 Ci/mmol/0.3 nM final) with increasing concentrations of the products under test. The final volume was 1 ml. The reaction was stopped by centrifuging for 5 minutes at 15000 g. Non-specific tagging was determined in the presence of […] of atropine sulphate.
The results are expressed as 50% inhibiting concentrations (IC50), i.e. the concentration (in μM) which induces a 50% displacement of the tritiated ligand fixed to the membrane receptors. The IC50 displacement of ^3 H--PZ represents affinity for the M1 receptor, and
The IC50 displacement of ^3 H--NMS represents affinity for the M2 receptor.

[4] = Acute oral toxicity in mice; set-up: species or system Swiss, CD 1); conditions: mouse, in vivo, female mice, 24 hours after administration, read-out: 50% lethal dose (DL50)
Protocol: The acute toxicity was determined for one product according to the invention: SR 45341 A. The product was orally administered in increasing doses to a batch of 10 female mice (Swiss, CD 1, Charles River, France), body weight 20 g.
The death rate caused by the product under study was noted during the 24 hours after administration of the product. The 50% lethal dose (DL50) was determined, i.e. the dose which killed 50% of the animals.

[5] = 3 mg/kg p.o., 4 hours before pirenzepine 1 μg intrastriatal, *p<0.05, **p<0.01 Student's test
[6] = displacement of 3H-PZ, rat hippocampus homogenate, 4° C., 2 hours, read-out: IC50 3H-PZ (M1)

| Compound | change in vivo at 3 mg/kg [1, 5] | IC50 [2, 6] | ratio R between the IC50 for receptors M1 and M2 (selectivity) [2] | IC50 [3] | other results |
| --- | --- | --- | --- | --- | --- |
| CCN(CC)CCCNc1nnc(-c2ccc(Cl)cc2Cl)s1 [SR 45481 A] | -67% | – | – | – | – |
| Cc1cc(C)c(-c2nnc(NCCCN(C)C)s2)c(C)c1Br [SR 45340 A] | -95% | 3.5 µM | 6 | 27 µM | – |
| Fc1ccc(-c2nnc(NCc3ccncc3)s2)cc1 [SR 45482 A] | -53% | – | – | – | – |
| CCN(CC)CCCNc1nnc(-c2c(C)cc(C)cc2C)s1 [SR 45352 A] | -32% | 5.5 µM | 5 | 30 µM | – |
| CN(C)CCCNc1nnc(-c2ccc(F)cc2)s1 [SR 45421 A] | -38% | – | – | – | – |
| FC(F)(F)c1cccc(-c2nnc(NCCN3CCOCC3)s2)c1 [B, reference compound] | – | – | – | – | % inhibition of pirenzepine-induced rotations ([1]; 0,3 mg/kg p.o., 4 hours before pirenzepine 1 μg intrastriatal, *p<0.05, **p<0.01 Student's test): Inactive; % inhibition of pirenzepine-induced rotations [1, 5]: Inactive |
| CN1CCC(N(C)c2nnc(-c3ccccc3)s2)CC1 [SR 44828 A, Dihydrochloride and hydrate of 2-[N-methyl N-(1-methyl 4-piperidyl)amino-5-phenyl-1,3,4-thiadiazole] | – | – | – | – | IC50 [2]: 9 µM; change in vivo at 3 mg/kg ([1]; 4 h): -26% |
| c1ccc(-c2nnc(NCCN3CCOCC3)s2)cc1 [A, reference compound] | -8% | – | – | – | – |
| CN1CCCC(CNc2nnc(-c3ccc(Cl)cc3)s2)C1 (centres unmarked) [SR 45491 A, 2-[(N-methyl 3-piperidyl)methylamino]-5-(4-chlorophenyl)-1,3,4-thiadiazoledihydrochloride] | -57% | – | – | – | – |
| Cc1cc(C)c(-c2nnc(NCc3cccnc3)s2)c(C)c1 [SR 45417 A] | -43% | – | – | – | – |
| Clc1ccc(-c2nnc(NCCCn3ccnc3)s2)c(Cl)c1 [SR - A] | -60% | – | – | – | – |
| CNCCCNc1nnc(-c2c(C)cc(C)cc2C)s1.Cl.Cl [SR 45418 A, 2-(3-methylaminopropylamino) 5-(2,4,6-trimethylphenyl) 1,3,4-thiadiazole dihydrochloride] | -77% | 20 µM | > 5 | > 100 µM | – |
| Cc1cc(C)c(-c2nnc(NCCCN(C)C)s2)c(C)c1.Cl.Cl [SR 45341 A, 2-(3-dimethylaminopropylamino)-5-(2,4,6-trimethylphenyl)-1,3,4 thiadiazole dihydrochloride] | -74% | 0.45 µM | 160 | 72 µM | LD50 at 24 h [4]: > 300 mg/kg |
| CN(C)CCCNc1nnc(-c2ccccc2)s1 [SR 44824 A] | -27% | 3 µM | > 30 | > 100 µM | – |
| Clc1ccc(-c2nnc(NCCc3ccccn3)s2)c(Cl)c1 [SR 45492 A] | -50% | – | – | – | – |
| CN1CCN(CCCNc2nnc(-c3ccc(Cl)cc3)s2)CC1 [SR 45489 A] | -29% | 3.6 µM | 7 | 26 µM | – |

| Compound | change in vivo at 3 mg/kg [1, 5] | IC50 [2, 6] | ratio R between the IC50 for receptors M1 and M2 (selectivity) [2] | IC50 [3] | other results |
| --- | --- | --- | --- | --- | --- |
| CN(C)CCCNc1nnc(-c2ccc(Cl)cc2)s1 [SR 45480 A] | -54% | 4.5 µM | 11 | 50 µM | – |
| CNCCCNc1nnc(-c2ccc(Cl)cc2Cl)s1 [SR 45479 A] | – | 14 µM | 5 | 70 µM | – |
| CN(Cc1cccnc1)c1nnc(-c2ccc(F)cc2)s1 [SR 45530 A] | -41% | – | – | – | – |
| Fc1ccc(-c2nnc(NCc3cccnc3)s2)cc1 [SR 45447 A] | -62% | – | – | – | – |
| CCN(CC)CCCCNc1nnc(-c2ccccc2)s1 [SR 45339 A, Dihydrochloride of 2-(4-diethylaminobutylamino)-5-phenyl-1,3,4-thiadiazole] | -77% | 5 µM | 7 | 34 µM | – |
| CN1CCCC1CCNc1nnc(-c2ccc(Cl)cc2Cl)s1 (centres unmarked) [SR 45490 A] | -73% | – | – | – | – |
| CNC1CCN(c2nnc(-c3ccccc3)s2)CC1 [SR 44825 A, 2-(4-methylaminopiperidino)-5-phenyl-1,3,4-thiadiazole dihydrochloride] | – | – | – | 80 µM | – |
| Clc1ccc(-c2nnc(NCc3cccnc3)s2)c(Cl)c1 [SR 45459 A] | -29% | – | – | – | – |
| CN(C)CCCNc1nnc(-c2ccc(Cl)cc2Cl)s1 [SR 45422 A] | -50% | 0.7 µM | 37 | 26 µM | – |
| Clc1ccc(-c2nnc(NCc3cccnc3)s2)cc1 [SR 45488 A] | -49% | – | – | – | – |
| Clc1ccc(-c2nnc(NCCCN3CCOCC3)s2)cc1 [SR 45520 A] | -75% | 4.5 µM | 17 | 80 µM | – |
| CN(C)CCNc1nnc(-c2ccccc2)s1 [C, reference compound] | -12% | – | – | – | – |
| CCN(CCCN(C)C)c1nnc(-c2ccc(F)cc2)s1 [SR 45483 A] | -20% | 2.4 µM | 8 | 20 µM | – |
| Clc1ccc(-c2nnc(NCCCn3ccnc3)s2)c(Cl)c1 [SR 45504 A] | – | 3 µM | 13 | 40 µM | – |
| Clc1ccc(-c2nnc(NCCCN3CCCC3)s2)c(Cl)c1 [SR 45458 A] | -28% | 0.8 µM | 15 | 12 µM | – |
